Reference: the NIST ThermoML archive (doi:10.1021/je060203o)
Numbers after ± are expanded uncertainties.

Conditions: Liquid; for speed of sound: Pulse-echo method; for mass density: Vibrating tube method

CCCn1cc[n+](C)c1.O=S(=O)([N-]S(=O)(=O)C(F)(F)F)C(F)(F)F
Conditions | mass density [kg/m3] | speed of sound [m/s]
318.15 K, 10000 kPa | – | 1225.2 ± 3.1
318.15 K, 10020 kPa | 1464.41 ± 2.7 | –
318.15 K, 13500 kPa | – | 1236.8 ± 3.1
318.15 K, 14980 kPa | 1467.91 ± 2.9 | –
318.15 K, 17000 kPa | – | 1248.2 ± 3.1
318.15 K, 19750 kPa | 1471.3 ± 3 | –
318.15 K, 20000 kPa | – | 1257.7 ± 3.1
318.15 K, 25860 kPa | 1475.51 ± 3.2 | –
318.15 K, 30000 kPa | – | 1288.7 ± 3.2
318.15 K, 31480 kPa | 1479.58 ± 3.3 | –
318.15 K, 37770 kPa | 1483.63 ± 3.5 | –
318.15 K, 40000 kPa | – | 1317.8 ± 3.2
318.15 K, 44170 kPa | 1487.95 ± 3.7 | –
318.15 K, 50000 kPa | – | 1345.7 ± 3.2
318.15 K, 50750 kPa | 1492.22 ± 3.9 | –
318.15 K, 59590 kPa | 1498.46 ± 4.1 | –
318.15 K, 60000 kPa | – | 1372.2 ± 3.2
318.15 K, 70000 kPa | – | 1397.8 ± 3.2
318.15 K, 80000 kPa | – | 1422.3 ± 3.2
318.15 K, 90000 kPa | – | 1446.3 ± 3.2
318.15 K, 100000 kPa | – | 1468.9 ± 3.2
318.15 K, 112500 kPa | – | 1496.5 ± 3.2
318.15 K, 125000 kPa | – | 1523.2 ± 3.2
318.15 K, 137510 kPa | – | 1548.4 ± 3.2
318.15 K, 150000 kPa | – | 1572.9 ± 3.2
318.15 K, 162500 kPa | – | 1596.6 ± 3.2
318.15 K, 175000 kPa | – | 1620 ± 3.2
318.15 K, 187500 kPa | – | 1642.7 ± 3.2
318.15 K, 200000 kPa | – | 1664.6 ± 3.2
323.15 K, 100 kPa | 1451.66 ± 2.5 | –
323.15 K, 1830 kPa | 1452.94 ± 2.5 | –
323.15 K, 10020 kPa | 1459.11 ± 2.7 | –
323.15 K, 14980 kPa | 1462.75 ± 2.9 | –
323.15 K, 19750 kPa | 1466.15 ± 3 | –
323.15 K, 25860 kPa | 1470.44 ± 3.1 | –
323.15 K, 31480 kPa | 1474.24 ± 3.3 | –
323.15 K, 37770 kPa | 1478.57 ± 3.5 | –
323.15 K, 44170 kPa | 1482.86 ± 3.6 | –
323.15 K, 50750 kPa | 1487.24 ± 3.8 | –
323.15 K, 59590 kPa | 1493.03 ± 4.1 | –
325.15 K, 100 kPa | 1449.44 ± 2.5 | –
325.15 K, 1830 kPa | 1450.74 ± 2.5 | –
325.15 K, 10020 kPa | 1456.98 ± 2.7 | –
325.15 K, 14980 kPa | 1460.64 ± 2.8 | –
325.15 K, 19750 kPa | 1464.08 ± 3 | –
325.15 K, 25860 kPa | 1468.44 ± 3.1 | –
325.15 K, 31480 kPa | 1472.46 ± 3.3 | –
325.15 K, 37770 kPa | 1476.81 ± 3.5 | –
325.15 K, 44170 kPa | 1481.18 ± 3.6 | –
325.15 K, 50750 kPa | 1485.62 ± 3.8 | –
325.15 K, 59590 kPa | 1491.56 ± 4.1 | –
327.15 K, 100 kPa | 1447.19 ± 2.5 | –
327.15 K, 1830 kPa | 1448.52 ± 2.5 | –
327.15 K, 10020 kPa | 1454.88 ± 2.7 | –
327.15 K, 14980 kPa | 1458.57 ± 2.8 | –
327.15 K, 19750 kPa | 1461.98 ± 3 | –
327.15 K, 25860 kPa | 1466.38 ± 3.1 | –
327.15 K, 31480 kPa | 1470.37 ± 3.3 | –
327.15 K, 37770 kPa | 1474.75 ± 3.4 | –
327.15 K, 44170 kPa | 1479.18 ± 3.6 | –
327.15 K, 50750 kPa | 1483.65 ± 3.8 | –
327.15 K, 59590 kPa | 1489.6 ± 4.1 | –
328.15 K, 500 kPa | – | 1170.9 ± 3.1
328.15 K, 3500 kPa | – | 1181.8 ± 3.1
328.15 K, 7000 kPa | – | 1194.2 ± 3.1
328.15 K, 10000 kPa | – | 1204.7 ± 3.1
328.15 K, 13500 kPa | – | 1216.4 ± 3.1
328.15 K, 17000 kPa | – | 1228 ± 3.1
328.15 K, 20000 kPa | – | 1237.7 ± 3.1
328.15 K, 30000 kPa | – | 1269.2 ± 3.2
328.15 K, 40000 kPa | – | 1299.1 ± 3.2
328.15 K, 50000 kPa | – | 1327.3 ± 3.2
328.15 K, 60000 kPa | – | 1354.2 ± 3.2
328.15 K, 70000 kPa | – | 1380.1 ± 3.2
328.15 K, 80000 kPa | – | 1405.1 ± 3.2
328.15 K, 90000 kPa | – | 1429.1 ± 3.2
328.15 K, 100000 kPa | – | 1452.2 ± 3.2
328.15 K, 112500 kPa | – | 1480.1 ± 3.2
328.15 K, 125000 kPa | – | 1506.9 ± 3.2
328.15 K, 137510 kPa | – | 1532.8 ± 3.2
328.15 K, 150000 kPa | – | 1557 ± 3.2
328.15 K, 162500 kPa | – | 1581.2 ± 3.2
328.15 K, 175000 kPa | – | 1604.6 ± 3.2
328.15 K, 187500 kPa | – | 1627.3 ± 3.2
328.15 K, 200000 kPa | – | 1649.6 ± 3.2
329.15 K, 100 kPa | 1444.85 ± 2.4 | –
329.15 K, 1830 kPa | 1446.17 ± 2.5 | –
329.15 K, 10020 kPa | 1452.55 ± 2.7 | –
329.15 K, 14980 kPa | 1456.27 ± 2.8 | –
329.15 K, 19750 kPa | 1459.81 ± 2.9 | –
329.15 K, 25860 kPa | 1464.24 ± 3.1 | –
329.15 K, 31480 kPa | 1468.26 ± 3.3 | –
329.15 K, 37770 kPa | 1472.67 ± 3.4 | –
329.15 K, 44170 kPa | 1477.09 ± 3.6 | –
329.15 K, 50750 kPa | 1481.63 ± 3.8 | –
329.15 K, 59590 kPa | 1487.58 ± 4 | –
331.15 K, 100 kPa | 1442.53 ± 2.4 | –
331.15 K, 1830 kPa | 1443.83 ± 2.5 | –
331.15 K, 10020 kPa | 1450.37 ± 2.7 | –
331.15 K, 14980 kPa | 1454.12 ± 2.8 | –
331.15 K, 19750 kPa | 1457.75 ± 2.9 | –
331.15 K, 25860 kPa | 1462.22 ± 3.1 | –
331.15 K, 31480 kPa | 1466.27 ± 3.2 | –
331.15 K, 37770 kPa | 1470.7 ± 3.4 | –
331.15 K, 44170 kPa | 1475.13 ± 3.6 | –
331.15 K, 50750 kPa | 1479.63 ± 3.8 | –
331.15 K, 59590 kPa | 1485.58 ± 4 | –
333.15 K, 100 kPa | 1440.12 ± 2.4 | –
333.15 K, 1830 kPa | 1441.48 ± 2.5 | –
333.15 K, 10020 kPa | 1448.04 ± 2.7 | –
333.15 K, 14980 kPa | 1451.88 ± 2.8 | –
333.15 K, 19750 kPa | 1455.51 ± 2.9 | –
333.15 K, 25860 kPa | 1460.01 ± 3.1 | –
333.15 K, 31480 kPa | 1464.11 ± 3.2 | –
333.15 K, 37770 kPa | 1468.58 ± 3.4 | –
333.15 K, 44170 kPa | 1473.05 ± 3.6 | –
333.15 K, 50750 kPa | 1477.56 ± 3.8 | –
333.15 K, 59590 kPa | 1483.54 ± 4 | –
338.15 K, 1420 kPa | – | 1153.5 ± 3.1
338.15 K, 3500 kPa | – | 1161.2 ± 3.1
338.15 K, 7000 kPa | – | 1173.8 ± 3.1
338.15 K, 10000 kPa | – | 1184.4 ± 3.1
338.15 K, 13500 kPa | – | 1196.6 ± 3.1
338.15 K, 17000 kPa | – | 1208.3 ± 3.1
338.15 K, 20000 kPa | – | 1218.2 ± 3.1
338.15 K, 30000 kPa | – | 1250.4 ± 3.2
338.15 K, 40000 kPa | – | 1280.7 ± 3.2
338.15 K, 50000 kPa | – | 1309.2 ± 3.2
338.15 K, 60000 kPa | – | 1336.7 ± 3.2
338.15 K, 70000 kPa | – | 1362.9 ± 3.2
338.15 K, 80000 kPa | – | 1388.1 ± 3.2
338.15 K, 90000 kPa | – | 1412.3 ± 3.2
338.15 K, 100000 kPa | – | 1435.8 ± 3.2
338.15 K, 112500 kPa | – | 1463.9 ± 3.2
338.15 K, 125000 kPa | – | 1491.1 ± 3.2
338.15 K, 137510 kPa | – | 1517 ± 3.2
338.15 K, 150000 kPa | – | 1541.4 ± 3.2
338.15 K, 162500 kPa | – | 1566 ± 3.2
338.15 K, 175000 kPa | – | 1589.5 ± 3.2
